Data taken from US9114164B2 (MEXICHEM AMANCO HOLDING S.A. DE C.V., priority 2011, dated 2015).

Experiment: in vitro aerosolization performance from MDI, Next Generation Impactor (NGI) with HPLC
Format: physicochemical
Conditions: formulated with R-152a rather than R-134a
Method: Drug was weighed directly into standard aluminium 19 mL cans (C128, Presspart, Blackburn, UK). The cans were then crimped with a 50 μL valve (Bespak, Kings Lynn, UK). Finally, the propellant was filled into the cans through the valve using a manual Pamasol crimper/filler (Pamasol, Switzerland). High performance liquid chromatography (HPLC) was used to determine drug content following aerosolization studies (see below). The HPLC machine consisted of a pump, column oven, column coupled to a UV detector (all Agilent 1200, Wokingham, Berkshire, UK). A Hypersil BDS C18 column (Fisher, Loughborough, UK, 5 μm, 250×4.6 mm i.d.) was used for high-throughput analysis of samples. The in vitro aerosolization performance of the formulations was studied using a Next Generation Impactor (NGI, Copley Scientific, Nottingham UK), which was connected to a vacuum pump (GE Motors, NJ, USA). Prior to testing, the cups of the NGI system were coated with 1% v/v silicone oil in hexane to eliminate particle bounce. For each experiment, three actuations of the can were discharged into the NGI at 30 L·min^−1 as per pharmacopeia guidelines. […] The mass of drug deposited on each part of the NGI was determined by HPLC. This protocol was repeated three times for the can, following which, the fine particle dose (FPD) and fine particle fraction of the emitted dose (FPFED) were determined.

emitted dose, comparison in words: significantly (p<0.05) greater
Substance: salbutamol sulphate
